According to PubChem BioAssay (NCI):
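Test compounds were applied to cells in 96-well plates for 48 hours at 5 doses. TGI: concentration producing complete growth inhibition.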

Assays:
Assay in all cases: DTP human tumour cell line panel, 48 h
[1] = system: CAKI-1 renal
[2] = system: HCT-116 colon
[3] = system: HT29 colon
[4] = system: LOX IMVI melanoma
[5] = system: MDA-MB-231 breast
[6] = system: MDA-MB-435
[7] = system: MOLT-4 leukemia
[8] = system: NCI/ADR-RES ovarian
[9] = system: OVCAR-3 ovarian
[10] = system: OVCAR-5 ovarian
[11] = system: SN12C renal
[12] = system: SW-620 colon
[13] = system: T-47D breast
[14] = system: U251 CNS
[15] = system: UACC-62 melanoma
[16] = system: HCC-2998 colon

Row | Compound | TGI [1] [µM] | TGI [2] [µM] | TGI [3] [µM] | TGI [4] [µM] | TGI [5] [µM] | TGI [6] [µM] | TGI [7] [µM] | TGI [8] [µM] | TGI [9] [µM] | TGI [10] [µM] | TGI [11] [µM] | TGI [12] [µM] | TGI [13] [µM] | TGI [14] [µM] | TGI [15] [µM] | TGI [16] [µM]
1 | Cc1ccc(C2SC(N)=Nc3c2c(C)nn3C(=O)c2ccccc2O)cc1 (centres undefined) | > 10 | > 10 | > 10 | > 10 | > 10 | > 10 | > 10 | > 10 | > 10 | > 10 | > 10 | > 10 | > 10 | > 10 | 4.27 | 
2 | COC(=O)c1c2c(cc3c1CC1(Cc4ccc(C(C)=O)cc4C1)C3)CCC2 (centres undefined) | > 100 | > 100 | 89 | 60.2 | > 100 | 50.8 | 86.5 | > 100 | > 100 | > 100 | > 100 | > 100 | > 100 | > 100 | > 100 | 
3 | O=C(Nc1ccccc1)n1[nH]c(=O)n(-c2ccccc2)c1=O | > 100 | > 100 | > 100 | > 100 | > 100 | > 100 |  | > 100 |  |  | > 100 | > 100 | > 100 | > 100 | > 100 | > 100
4 | N#Cc1cc(-c2nc3c(F)cccc3s2)ccc1N | > 100 | > 100 | > 100 | > 100 | > 100 | > 100 | > 100 | > 100 | > 100 | > 100 | > 100 | > 100 | > 100 | > 100 | > 100 | 
5 | Cc1cc2sc(C)[n+](CCCOS(=O)(=O)[O-])c2cc1C | > 100 | > 100 | > 100 | > 100 | > 100 | > 100 | > 100 | > 100 | > 100 | > 100 | > 100 | > 100 | > 100 | > 100 | > 100 | 
6 | CC(=O)N1C(NN(C)C)CCN1c1ccccc1 (centres undefined) | > 10 |  | > 10 |  | > 10 | > 10 | > 10 |  |  |  | > 10 | > 10 | > 10 |  | > 10 | > 10
7 | Cc1ccc(N(C(=O)Nc2ccc(F)c(Cl)c2)C2=NCC(C)S2)cc1 (centres undefined) | > 100 | > 100 | > 100 | > 100 | > 100 |  | > 100 | 73.2 | > 100 | > 100 | > 100 | > 100 | > 100 | > 100 |  | 
8 | Oc1cc(-c2ccc(Cl)cc2)cn2c1nc1ccccc12 | > 100 | > 100 | > 100 | > 100 | > 100 | > 100 |  | > 100 | > 100 |  | > 100 | > 100 | > 100 | > 100 | > 100 | 
9 | C/C(=N\NC(=O)c1ccncc1)c1ccccc1F | > 10 | > 10 |  | > 10 |  |  | > 10 | > 10 | > 10 | > 10 | > 10 | > 10 | > 10 | > 10 |  | > 10
10 | COc1cccc(N2C(=O)/C(=C\c3ccccc3)SC2c2cc(OC)c(OC)c(OC)c2)c1 (centres undefined) | > 100 | > 100 | > 100 | > 100 | > 100 | > 100 | > 100 | > 100 |  | > 100 | > 100 |  | 94.3 | > 100 | > 100 | > 100
11 | Cc1ccc2c(c1)CC1(Cc3c(C)cccc3C1=O)C2=O (centres undefined) |  | > 100 | > 100 | > 100 | > 100 | > 100 | > 100 | > 100 | > 100 | > 100 | > 100 | > 100 | > 100 | > 100 | > 100 | > 100
12 | COc1ccc(N2C(=O)C(C)SC2c2cc3cc(Br)ccc3nc2Cl)cc1 (centres undefined) | > 100 | > 100 | > 100 | > 100 | > 100 | 50.5 | 79.2 | 85.8 | > 100 | > 100 | > 100 | > 100 | > 100 |  | > 100 | > 100
13 | CC(C)(C)c1ccc(-n2c3nc(=O)n(-c4ccccc4CO)c(=O)c-3cc3ccccc32)cc1 | > 100 | > 100 | 86.8 | 37.9 | > 100 | 99.4 | 57.2 | > 100 |  | > 100 | > 100 | > 100 | > 100 | > 100 | > 100 | > 100
14 | Oc1ccc(Cc2nccc3cc(O)c(O)cc23)cc1O | > 100 | 35.1 | > 100 | > 100 | > 100 | > 100 | > 100 | > 100 | > 100 | > 100 | > 100 | > 100 | > 100 | > 100 | > 100 | 
15 | COc1cccc(-c2nc3ccccc3c(=O)[nH]2)c1OC | > 100 | > 100 | > 100 |  | > 100 | > 100 | > 100 | > 100 | > 100 | > 100 | > 100 | > 100 | > 100 | > 100 | > 100 | > 100
16 | C=CCc1ccccc1CC1(OCC)OC(=O)c2ccccc21 (centres undefined) | > 100 | > 100 | > 100 |  | > 100 | 96.9 | > 100 |  | > 100 | > 100 | > 100 | > 100 | > 100 | > 100 | > 100 | > 100
17 | Cc1ccc(/C=C2\CN(C)CC3C2=NN(c2ccccc2)C3c2ccc(C)cc2)cc1 (centres undefined) | > 100 | > 100 | > 100 | > 100 | > 100 | > 100 | > 100 | > 100 | > 100 |  | > 100 | > 100 | > 100 | > 100 | > 100 | > 100
18 | CN(C(=O)C1CCCCCC1=O)c1ccccc1Cl (centres undefined) | > 100 | > 100 | > 100 | > 100 | > 100 | > 100 | > 100 | > 100 | > 100 | > 100 | > 100 | > 100 | > 100 | > 100 |  | 
19 | COC(=O)C1(C(=O)OC)Cc2ccc(C)cc2C2=C1C(=O)c1ccccc1C2=O |  | 40.3 | 62.2 | 39.9 | 33 | 31.4 | 31.7 | 80.1 | 14.9 | 35.5 | 48.1 | 45.8 | 29.9 |  | 35.8 | 
20 | Cc1ccc(N2CCC3(CC2)OCCO3)cc1 | > 100 | > 100 | > 100 |  | > 100 | > 100 | > 100 | > 100 | > 100 | > 100 | > 100 | > 100 | > 100 | > 100 | > 100 | > 100
21 | CCN(CC)c1c(-c2c(N(CC)CC)c(OC(C)=O)c3sccn3c2=O)c(=O)n2ccsc2c1OC(C)=O | > 100 | > 100 | > 100 | > 100 | 57 | > 100 | > 100 | > 100 | > 100 | > 100 | > 100 | > 100 |  | > 100 | > 100 | > 100
22 | NC(=S)N/N=C1/CCCC2CCCC[C@@H]12 (some centres undefined) | > 100 |  | > 100 | > 100 | > 100 | > 100 | > 100 | > 100 | > 100 | > 100 |  | > 100 | > 100 | > 100 | > 100 | > 100
23 | COc1cc([C@H]2CC(=O)C[C@H](c3cc(OC)c(OC)c(OC)c3)C23C(=O)c2ccccc2C3=O)cc(OC)c1OC | > 100 | 63.7 | > 100 |  | > 100 | > 100 | > 100 | > 100 | > 100 | > 100 | > 100 | > 100 | > 100 | > 100 | > 100 | > 100
24 | S=C1CSc2c(ccc3ccccc23)N1 | > 100 | > 100 | > 100 | > 100 | > 100 | > 100 | > 100 | > 100 | > 100 | > 100 | > 100 |  | > 100 | > 100 | > 100 | 
25 | O=c1n(-c2ccccc2)c(=O)n2n1C1Cc3ccccc3C12 (centres undefined) | > 100 | > 100 | > 100 | > 100 | > 100 | > 100 | > 100 | > 100 | > 100 | > 100 | > 100 | > 100 | > 100 | > 100 | > 100 | 
